IC50 data for 32 compounds are collected here from patent US11780839B2, “Compounds for treating Huntington's disease” (PTC THERAPEUTICS, INC., priority 2018, dated 2023).

SMILES strings stand for the structures.

This assay has as its system Endogenous Huntingtin Protein. Nature of the assay: Endogenous Huntingtin Protein Assay (ELISA-based Meso Scale Discovery electrochemiluminescence). The assay is classed as cell-based. The following applies: MSD electrochemiluminescence, Table 1. The method, then: Compounds of Formula (I) or Formula (II) were tested using the Meso Scale Discovery (MSD) Assay provided in International Application No. PCT/US2016/066042, filed on Dec. 11, 2016 and claiming priority to U.S. Provisional Application 62/265,652 filed on Dec. 10, 2015, the entire contents of which are incorporated herein by reference.
The Endogenous Huntingtin Protein assay used in Example 1 was developed using the ELISA-based MSD electrochemiluminescence assay platform.
Endogenous Huntingtin Protein Assay
Meso Scale Discovery (MSD) 96-well or 384-well plates were coated overnight at 4° C. with MW1 (expanded polyglutamine) or MAB2166 monoclonal antibody (for capture) at a concentration of 1 μg/mL in PBS (30 μL per well). Plates were then washed three times with 300 μL wash buffer (0.05% Tween-20 in PBS) and blocked (100 μL blocking buffer; 5% BSA in PBS) for 4-5 hours at room temperature with rotational shaking and then washed three times with wash buffer.
Samples (25 μL) were transferred to the antibody-coated MSD plate and incubated overnight at 4° C. After removal of the lysates, the plate was washed three times with wash buffer, and 25 μL of #5656S (Cell signaling; rabbit monoclonal) secondary antibody (diluted to 0.25 μg/mL in 0.05% Tween-20 in blocking buffer) was added to each well and incubated with shaking for 1 Hour at room temperature. Following incubation with the secondary antibody, the wells were rinsed with wash buffer after which 25 μL of goat anti-rabbit SULFO TAG secondary detection antibody (required aspect of the MSD system) (diluted to 0.25 μg/mL in 0.05% Tween-20 in blocking buffer) was added to each well and incubated with shaking for 1 hour at room temperature. After rinsing three times with wash buffer, 150 μL of read buffer T with surfactant (MSD) were added to each empty well, and the plate was imaged on a SI 6000 imager (MSD) according to manufacturers' instructions provided for 96- or 384-well plates.
(ELISA stands for enzyme-linked immunosorbent assay.)
As for `Oc1cc(-c2cn[nH]c2)ccc1-c1cnc(N2CCC3(CCCN3)C2)nn1` (centres unmarked) [Cpd 339, 2-[3-(1,7-diazaspiro[4.4]nonan-7-yl)-1,2,4-triazin-6-yl]-5-(1H-pyrazol-4-yl)phenol], the half-maximal inhibitory concentration (IC50) – broadly, the midpoint of a concentration-inhibition curve – is not above 100 nM. As for `CN(c1ncc(-c2ccc(-c3ccc(Cl)nn3)cc2O)nn1)C1CC(C)(C)NC(C)(C)C1` [Cpd 123, 5-(6-chloropyridazin-3-yl)-2-{3-[methyl(2,2,6,6-tetramethylpiperidin-4-yl)amino]-1,2,4-triazin-6-yl}phenol], the figure is not above 100 nM; as for `CN[C@@H]1CN(c2ncc(-c3ccc(-c4cn[nH]c4)cc3O)nn2)C[C@H]1OC` [Cpd 346, 2-{3-[(3R,4R)-3-methoxy-4-(methylamino)pyrrolidin-1-yl]-1,2,4-triazin-6-yl}-5-(1H-pyrazol-4-yl)phenol], more than 500 nM. As for `CNC1CCN(c2ncc(-c3ccc(-c4ncco4)cc3O)nn2)C1` (stereo not drawn) [Cpd 358, 2-{3-[3-(methylamino)pyrrolidin-l-yl]-1,2,4-triazin-6-yl}-5-(1,3-oxazol-2-yl)phenol], the figure is 100 to 500 nM; as for `Oc1cc(-c2cn[nH]c2)ccc1-c1cnc(N2CCC(NC3CCOCC3)C2)nn1` (centres unmarked) [Cpd 335, 2-(3-{3-[(oxan-4-yl)amino]pyrrolidin-1-yl}-1,2,4-triazin-6-yl)-5-(1H-pyrazol-4-yl)phenol], not above 100 nM; as for `Oc1cc(-c2cn[nH]c2)ccc1-c1cnc(N2CCC(CNC3CCOC3)C2)nn1` (centres unmarked) [Cpd 395, 2-[3-(3-{[(oxolan-3-yl)amino]methyl}pyrrolidin-1-yl)-1,2,4-triazin-6-yl]-5-(1H-pyrazol-4-yl)phenol], not above 100 nM. As for `CN(c1ncc(-c2ccc(-c3cnn(C)c3)cc2O)nn1)C1CC(C)(C)NC(C)(C)C1` [Cpd 16], the figure is not above 100 nM; as for `CN(c1ncc(-c2ccc(-n3cc(F)cn3)cc2O)nn1)C1CC(C)(C)NC(C)(C)C1` [Cpd 93, 5-(4-fluoro-1H-pyrazol-1-yl)-2-{3-[methyl(2,2,6,6-tetramethylpiperidin-4-yl)amino]-1,2,4-triazin-6-yl}phenol], not above 100 nM; as for `CN1CCC2(CC1)CN(c1ncc(-c3ccc(-c4ccn(C)n4)cc3O)nn1)C2` [Cpd 233, 2-[3-(7-methyl-2,7-diazaspiro[3.5]nonan-2-yl)-1,2,4-triazin-6-yl]-5-(1-methyl-1H-pyrazol-3-yl)phenol], 1000 to 3000 nM. Take `CC(C)(C)NC1CCN(c2cnc(-c3ccc(-c4cn[nH]c4)cc3O)nn2)C1` (stereo not drawn) [Cpd 363, 2-{6-[3-(tert-butylamino)pyrrolidin-l-yl]-1,2,4-triazin-3-yl}-5-(1H-pyrazol-4-yl)phenol]: the IC50 is not above 100 nM. As for `CN1CC[C@@H]2CN(c3ncc(-c4ccc(-c5cn[nH]c5)cc4O)nn3)C[C@@H]21` [Cpd 117, 2-{3-[(3aR,6aR)-1-methylhexahydropyrrolo[3,4-b]pyrrol-5(1H)-yl]-1,2,4-triazin-6-yl}-5-(1H-pyrazol-4-yl)phenol], the figure is 100 to 500 nM; as for `NC1CN(c2ncc(-c3ccc(-c4cn[nH]c4)cc3O)nn2)CC12COC2` (centres unmarked) [Cpd 334, 2-[3-(8-amino-2-oxa-6-azaspiro[3.4]octan-6-yl)-1,2,4-triazin-6-yl]-5-(1H-pyrazol-4-yl)phenol], 1000 to 3000 nM. As for `CN(c1ncc(-c2ccc(-c3cnco3)cc2O)nn1)C1CC(C)(C)NC(C)(C)C1` [Cpd 91, 2-{3-[methyl(2,2,6,6-tetramethylpiperidin-4-yl)amino]-1,2,4-triazin-6-yl}-5-(1,3-oxazol-5-yl)phenol], the figure is not above 100 nM; as for `CN(c1ncc(-c2ccc(-n3nccn3)cc2O)nn1)C1CC(C)(C)NC(C)(C)C1` [Cpd 63, 2-{3-[methyl(2,2,6,6-tetramethylpiperidin-4-yl)amino]-1,2,4-triazin-6-yl}-5-(2H-1,2,3-triazol-2-yl)phenol], not above 100 nM; as for `CC1(C)CC(Nc2ncc(-c3ccc(-n4cc(F)cn4)cc3O)nn2)CC(C)(C)N1` [Cpd 276, 5-(4-fluoro-1H-pyrazol-1-yl)-2-{3-[(2,2,6,6-tetramethylpiperidin-4-yl)amino]-1,2,4-triazin-6-yl}phenol], not above 100 nM. As for `Oc1cc(-c2cn[nH]c2)ccc1-c1cnc(N2CCC3(CNCCO3)C2)nn1` (centres unmarked) [Cpd 353, 2-[3-(6-oxa-2,9-diazaspiro[4.5]decan-2-yl)-1,2,4-triazin-6-yl]-5-(1H-pyrazol-4-yl)phenol], the figure is 1000 to 3000 nM. Compound `CN(c1ncc(-c2ccc(-c3ncccn3)cc2O)nn1)C1CC(C)(C)NC(C)(C)C1` [Cpd 85, 2-{3-[methyl(2,2,6,6-tetramethylpiperidin-4-yl)amino]-1,2,4-triazin-6-yl}-5-(pyrimidin-2-yl)phenol] returned a half-maximal inhibitory concentration (IC50) not above 100 nM. As for `CN1CCC2(CC1)CN(c1ncc(-c3ccc(-c4ncns4)cc3O)nn1)C2` [Cpd 272, 2-[3-(7-methyl-2,7-diazaspiro[3.5]nonan-2-yl)-1,2,4-triazin-6-yl]-5-(1,2,4-thiadiazol-5-yl)phenol], the figure is 100 to 500 nM. As for `Oc1cc(-c2cn[nH]c2)ccc1-c1cnc(N2CCC3(CCNC3)C2)nn1` (centres unmarked) [Cpd 354, 2-[3-(2,7-diazaspirol{4.4}nonan-2-yl)-1,2,4-triazin-6-yl]-5-(1H-pyrazol-4-yl)phenol], the figure is not above 100 nM.

In turn, `CN1CC[C@H](Oc2ncc(-c3ccc(-c4cn[nH]c4)cc3O)nn2)C1` [Cpd 309, 2-(3-{[(3S)-1-methylpyrrolidin-3-yl]oxy}-1,2,4-triazin-6-yl)-5-(1H-pyrazol-4-yl)phenol] returned an IC50 of more than 500 nM. As for `Cn1ncc(-c2ccc(-c3cnc(N[C@H]4CC(C)(C)NC(C)(C)[C@H]4F)nn3)c(O)c2)n1` [Cpd 287, 2-(3-{[(3S,4S)-3-fluoro-2,2,6,6-tetramethylpiperidin-4-yl]amino}-1,2,4-triazin-6-yl)-5-(2-methyl-2H-1,2,3-triazol-4-yl)phenol], the figure is not above 100 nM; as for `Cn1ncc2cc(-c3ccc(-c4cnc(N5CCC(NC(C)(C)C)C5)nn4)c(O)c3)ccc21` (stereo not drawn) [Cpd 208, 2-{3-[3-(tert-butylamino)pyrrolidin-l-yl]-1,2,4-triazin-6-yl}-5-(1-methyl-1H-indazol-5-yl)phenol], 100 to 500 nM; as for `Cc1n[nH]cc1-c1ccc(-c2cnc(N3CCC(NC(C)(C)C)C3)nn2)c(O)c1` (centres unmarked) [Cpd 375, 2-{3-[3-(tert-butylamino)pyrrolidin-1-yl]-1,2,4-triazin-6-yl}-5-(3-methyl-1H-pyrazol-4-yl)phenol], not above 100 nM. As for `CN1CCC2(CC1)CN(c1ncc(-c3ccc(-n4ccnc4)cc3O)nn1)C2` [Cpd 231, 5-(1H-imidazol-1-yl)-2-[3-(7-methyl-2,7-diazaspiro[3.5]nonan-2-yl)-1,2,4-triazin-6-yl]phenol], the figure is 100 to 500 nM; as for `Cn1ccc(-c2ccc(-c3cnc(N4CCC(NC(C)(C)C)C4)nn3)c(O)c2)cc1=O` (centres unmarked) [Cpd 214, 4-(4-{3-[3-(tert-butylamino)pyrrolidin-1-yl]-1,2,4-triazin-6-yl}-3-hydroxyphenyl)-1-methylpyridin-2(1H)-one], not above 100 nM; as for `CC1(C)CN(c2ncc(-c3ccc(-c4cn[nH]c4)cc3O)nn2)CC(C)(C)N1` [Cpd 282, 5-(1H-pyrazol-4-yl)-2-[3-(3,3,5,5-tetramethylpiperazin-1-yl)-1,2,4-triazin-6-yl]phenol], more than 500 nM. As for `Oc1cc(-c2cn[nH]c2)ccc1-c1cnc(NC2C[C@H]3CC[C@@H](C2)N3)nn1` (some centres unmarked) [Cpd 78], the figure is not above 100 nM.

The compound `[2H]C([2H])([2H])n1cc(-c2ccc(-c3cnc(NC4CC(C)(C)NC(C)(C)C4)nn3)c(O)c2)cn1` [Cpd 373, 5-[1-(^2H3)methyl-1H-pyrazol-4-yl]-2-{3-[(2,2,6,6-tetramethylpiperidin-4-yl)amino]-1,2,4-triazin-6-yl}phenol] yielded an IC50 not above 100 nM. Take `Cn1cc(-c2ccc(-c3cnc(N4CCC(C)(N)C4)nn3)c(O)c2)cn1` (centres unmarked) [Cpd 389, 2-[3-(3-amino-3-methylpyrrolidin-1-yl)-1,2,4-triazin-6-yl]-5-(1-methyl-1H-pyrazol-4-yl)phenol]: the IC50 is not above 100 nM. As for `CN(c1ncc(-c2ccc(-n3cnc(Cl)c3)cc2O)nn1)C1CC(C)(C)NC(C)(C)C1` [Cpd 59, 5-(4-chloro-1H-imidazol-1-yl)-2-{3-[methyl(2,2,6,6-tetramethylpiperidin-4-yl)amino]-1,2,4-triazin-6-yl}phenol], the figure is not above 100 nM; as for `CC(C)(C)N[C@H]1CCN(c2ncc(-c3ccc(-c4c[nH]nc4F)cc3O)nn2)C1` [Cpd 378, 2-{3-[(3S)-3-(tert-butylamino)pyrrolidin-1-yl]-1,2,4-triazin-6-yl}-5-(3-fluoro-1H-pyrazol-4-yl)phenol], not above 100 nM; as for `CCN(CC)C1C2CN(c3ncc(-c4ccc(-c5cn[nH]c5)cc4O)nn3)CC21` (centres unmarked) [Cpd 127, 2-{3-[6-(diethylamino)-3-azabicyclo[3.1.0]hexan-3-yl]-1,2,4-triazin-6-yl}-5-(1H-pyrazol-4-yl)phenol], 100 to 500 nM.
